Assays:
NMDA receptor = experiment: Blockage of NMDA-induced seizure activity and lethality in mice pretreated with the antagonist; assay type: in vivo; conditions: for mice survived following NMDA induced seizures: male CD-1 mice, groups of 5, sc 20 min before NMDA 200 mg/kg IP, 4 h observation, highest equivalent memantine dose (memantine hydrochloride 30 mg/kg sc); for protection in the NMDA-induced seizure/mortality test: sc, Example 4 at equivalent memantine dose, Examples 1 and 2 administered as suspensions
Description: Briefly, the test measures blockage of seizure activity and lethality in mice produced by the administration of NMDA when pretreated with the antagonists. [see Leander, J. D., et al., Brain Res. 448, 115-120 (1988) and Parsons, C. G., et al., Neuropharmacol 34, 1239-1258; (1995)].
Test protocol: Groups of 5 male CD-1 mice weighing 24±2 g were used. Male CD-1 (Crl.) mice were provided by BioLasco Taiwan (under Charles River Laboratories Technology License). Space allocations for animals were as follows: 29×18×13 cm for 5 mice. Mice were maintained in a controlled temperature (22° C.-24° C.) and humidity (60%-80%) environment with 12 h light/dark cycles for at least one week in MDS Pharma Services—Taiwan Laboratory prior to use. Free access to standard lab chow for mice [MF-18 (Oriental Yeast Co., Ltd., Japan)] and RO water was granted. [All aspects of this work including housing, experimentation and disposal of animals were performed in general accordance with the Guide for the Care and Use of Laboratory Animals (National Academy Press, Washington, D.C., 1996).]
Test substance was administered by subcutaneous (sc) injection 20 min before challenge with NMDA 200 mg/kg by intraperitoneal injection (IP). The animals were placed individually in glass jars and observed over a period of 4 h for presence of clonic convulsions, tonic convulsions and mortality. The onset of clonic and tonic convulsions as well as death was recorded and incidence of clonic seizures, tonic seizures and death was reported. Inhibition of NMDA (200 mg/kg, IP)-induced tonic convulsions/mortality (mainly mortality) in more than 50 percent (>50%) of the 5 mice during the following 4 h indicates possible NMDA receptor antagonist activity. Memantine hydrochloride at 30 mg/kg sc was used as positive control.
The vehicle used for dissolution was 20% aqueous DMSO.

[1] = ambient conditions in air and humidity, after 50 days; cited from earlier work
[2] = Solubility in the dosing vehicle (20% aqueous DMSO); assay type: physicochemical

CC12CC3CC(C)(C1)CC([NH3+])(C3)C2.CC12CC3CC(C)(C1)CC([NH3+])(C3)C2.[S]=[Mo](=[S])([S-])[S-] [Example 3, Bis(1-ammonium-3,5-dimethyladamantane) tetrathiomolybdate]
more effective than memantine at an equivalent dose (NMDA receptor; NMDA-induced clonic seizures and mortality in mice, equivalent dose (30 mg)): 40%
mice survived following NMDA induced seizures (NMDA receptor): 4/5
inhibition of NMDA-induced clonic seizures and mortality (NMDA receptor; mice, sc pretreatment at three doses, NMDA 200 mg/kg IP): in a dose dependent manner
time to seizures (NMDA receptor; mice, highest equivalent memantine dose, compared with memantine): notably prolonged
protection from tonic seizures (NMDA receptor; mice, low, medium and high doses, without DMSO solvate, similar to the high dose of memantine): protected from tonic seizures

CC1(C)CC(C)(C)CC(C)([NH3+])C1.CC1(C)CC(C)(C)CC(C)([NH3+])C1.[S]=[Mo](=[S])([S-])[S-] [Example 4, Bis(1-ammonium-1,3,3,5,5-pentamethylcyclohexane)tetrathiomolybdate]
protection in the NMDA-induced seizure/mortality test (NMDA receptor; mice): complete protection

[NH4+].[NH4+].[SH-].[SH-].[S]=[Mo]=[S] [TM, diammonium tetrathiomolybdate]
loss in activity [1]: ~55%

CC12CC3CC(C)(C1)CC(N)(C3)C2 [memantine, 1-amino-3,5-dimethyladamantane, reference compound]
mice survived following NMDA induced seizures (NMDA receptor): 5/5

Bis(1-methylammoniumadamantane) tetrathiomolybdate [Example 2]
protection in the NMDA-induced seizure/mortality test (NMDA receptor; mice): not protective
solubility in the vehicle [2]: inadequate solubility
